≈ marks a conversion by molar mass, not a printed value.
Tested on: S. pneumoniae ATCC 49619
Test: Minimal inhibitory concentration (MIC) by broth microdilution (CLSI M7-A7)
Type: cell-based, Streptococcus pneumoniae
Details: Streptococcus pneumoniae, ATCC49619; cation-adjusted Mueller Hinton Broth supplemented with 3% (v/v) lysed horse blood; microdilution method
Procedure, shortened: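 Broth microdilution per CLSI M7-A7 in cation-adjusted Mueller-Hinton broth with 3% (v/v) lysed horse blood for S. pneumoniae. MIC in mg/l.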

Row | Compound | MIC [µg/mL]
1 | CCNC(=O)Nc1cc2cccc(CNC(C)=O)c2cn1 [Example 3, N-[3-(3-ethyl-ureido)-isoquinolin-8-ylmethyl]-acetamide] | 4 (≈ 14 µM)
2 | CCNC(=O)Nc1cc2c(-c3ccncc3)ccc(CNC(=O)OCCC(=O)O)c2cn1 [Example 104, 3-((((3-(3-ethylureido)-5-(pyridin-4-yl)isoquinolin-8-yl)methyl)carbamoyl)oxy)propanoic acid] | 8 (≈ 18.3 µM)
3 | CCNC(=O)Nc1cc2c(-c3ccncc3)ccc(CNC(=O)OCCCN3CCCC3=O)c2cn1.Cl [Example 85, [3-(3-ethyl-ureido)-5-pyridin-4-yl-isoquinolin-8-ylmethyl]-carbamic acid 3-(2-oxo-pyrrolidin-1-yl)-propyl ester hydrochloride] | 1
4 | CCNC(=O)Nc1cc2c(-c3ccncc3)ccc(CNC(=O)CO)c2cn1 [Example 61, N-[3-(3-ethyl-ureido)-5-pyridin-4-yl-isoquinolin-8-ylmethyl]-2-hydroxy-acetamide] | 4 (≈ 10.5 µM)
5 | CCNC(=O)Nc1cc2c(Cl)ccc(CNC(=O)OC)c2cn1 [Example 159, [5-chloro-3-(3-ethyl-ureido)-isoquinolin-8-ylmethyl]-carbamic acid methyl ester] | 1 (≈ 2.97 µM)
6 | CCNC(=O)Nc1cc2c(-c3ccnc(F)c3)ccc(CNC(=O)OC)c2cn1 [Example 161, [3-(3-ethyl-ureido)-5-(2-fluoro-pyridin-4-yl)-isoquinolin-8-ylmethyl]-carbamic acid methyl ester] | 0.5 (≈ 1.26 µM)
7 | CCNC(=O)Nc1cc2c(-c3ccncc3)ccc(CNC(=O)c3cc[nH]n3)c2cn1 [Example 72, 1H-pyrazole-3-carboxylic acid [3-(3-ethyl-ureido)-5-pyridin-4-yl-isoquinolin-8-ylmethyl]-amide] | 0.5 (≈ 1.2 µM)
8 | CCNC(=O)Nc1cc2c(-c3ccncc3)ccc(CNC(=O)OCCc3cnn[nH]3)c2cn1 [Example 152, [3-(3-ethyl-ureido)-5-pyridin-4-yl-isoquinolin-8-ylmethyl]-carbamic acid 2-(3H-[1,2,3]triazol-4-yl)-ethyl ester] | 1 (≈ 2.17 µM)
9 | CCNC(=O)Nc1cc2c(-c3ccncc3)ccc(CNC(=O)OCCNC(=O)OC(C)(C)C)c2cn1 [Example 81, [3-(3-ethyl-ureido)-5-pyridin-4-yl-isoquinolin-8-ylmethyl]-carbamic acid 2-tert-butoxycarbonylamino-ethyl ester] | 0.5 (≈ 0.983 µM)
10 | CCNC(=O)Nc1cc2c(-c3ccncc3)ccc(CNC(=O)OCC[C@@H](O)CO)c2cn1.Cl [Example 102, (R)-[3-(3-ethyl-ureido)-5-pyridin-4-yl-isoquinolin-8-ylmethyl]-carbamic acid 3,4-dihydroxy-butyl ester hydrochloride] | 1
11 | CCNC(=O)Nc1cc2c(-c3cc(F)ncc3F)ccc(CNC(=O)OC)c2cn1.Cl [Example 191, [5-(2,5-difluoro-pyridin-4-yl)-3-(3-ethyl-ureido)-isoquinolin-8-ylmethyl]-carbamic acid methyl ester hydrochloride] | 2
12 | CCNC(=O)Nc1cc2c(-c3ccnc(F)c3C)ccc(CNC(=O)OC)c2cn1.Cl [Example 187, [3-(3-ethyl-ureido)-5-(2-fluoro-3-methyl-pyridin-4-yl)-isoquinolin-8-ylmethyl]-carbamic acid methyl ester hydrochloride] | 4
13 | CCNC(=O)Nc1cc2c(-c3ccncc3)ccc(CNC(=O)CC(=O)NC)c2cn1 [Example 53, N-[3-(3-ethyl-ureido)-5-pyridin-4-yl-isoquinolin-8-ylmethyl]-N′-methyl-malonamide] | 4 (≈ 9.51 µM)
14 | CCNC(=O)Nc1cc2c(-c3ccnc(F)c3)ccc(CNC(=O)OCCOC)c2cn1 [Example 118, [3-(3-ethyl-ureido)-5-(2-fluoro-pyridin-4-yl)-isoquinolin-8-ylmethyl]-carbamic acid 2-methoxy-ethyl ester] | 0.5 (≈ 1.13 µM)
15 | CCNC(=O)Nc1cc2cccc(CNC(=O)C(C)C)c2cn1 [Example 18, N-[3-(3-ethyl-ureido)-isoquinolin-8-ylmethyl]-isobutyramide] | 4 (≈ 12.7 µM)
16 | CCNC(=O)Nc1cc2c(-c3ccncc3)ccc(CNC(=O)OCCC(=O)OC)c2cn1.Cl [Example 105, methyl 3-((((3-(3-ethylureido)-5-(pyridin-4-yl)isoquinolin-8-yl)methyl)carbamoyl)oxy)propanoate hydrochloride] | 4
17 | CCNC(=O)Nc1cc2c(-c3ccnc(CC(=O)N(C)C)c3)ccc(CNC(=O)OC)c2cn1 [Example 194, [5-[2-(dimethylcarbamoyl-methyl)-pyridin-4-yl]-3-(3-ethyl-ureido)-isoquinolin-8-ylmethyl]-carbamic acid methyl ester] | 4 (≈ 8.61 µM)

Same assay, conditions: cation-adjusted Mueller Hinton Broth supplemented with 3% (v/v) lysed horse blood; microdilution method

Row | Compound | MIC for S. pneumoniae ATCC 49619 [mg/L]
18 | CCNC(=O)Nc1cc2c(-c3ccnc(CN4CCOCC4)c3)ccc(CNC(=O)OCCOC)c2cn1 [Example 123, {3-(3-ethyl-ureido)-5-[(2-morpholin-4-ylmethyl)-pyridin-4-yl]-isoquinolin-8-ylmethyl}-carbamic acid 2-methoxy-ethyl ester] | 8

— US8889676B2, “3-ureidoisoquinolin-8-yl derivatives” (Actelion Pharmaceuticals Ltd., priority 2011, dated 2014)
